# Source: patent US12496285B2, “Compositions and methods using at least one glycine or derivative thereof, at least one N-acetylcysteine or derivative thereof, and at least one nicotinamide riboside or NAD+ precursor” (SOCIETE DES PRODUITS NESTLE S.A., priority 2018, dated 2025)
# Tested on: mitochondrial respiration
# Experiment: High-resolution respirometry of isolated muscle mitochondria from adult zebrafish after menadione-induced acute oxidative stress
# Type: in vivo
# Details: 3 uM menadione 2 h then 2 h treatment, low doses: NAC 100 uM + glycine 100 uM (GlyNAC) or NR 50 uM, single treatments
# Protocol: FIG. 1. Effect of the combination of NAC, glycine and NR on the mitochondrial respiration. High-resolution respirometry of isolated mitochondria from muscle of adult zebrafish (N=5-6/condition). Acute oxidative stress was induced with a 2 h-treatment with menadione (Men). Rescue of the respiration was assessed with a treatment of 2 h with low doses of […] 100 uM, glycine 100 uM) and low dose of NR (50 uM). Data of respiration measurements are shown in 1A. Theoretical additive effect (Δ[…]) has been calculated as the sum of the mean of […] and NR and have been compared to the synergistic effect (Δ[…]). […] After BCA quantification of protein concentration, 150 ug of crude extract were used for high-resolution respirometry quantification. […] Respiration of isolated mitochondria was determined using substrate-uncoupler-inhibitor titration (SUIT) protocols (Pesta and […], 2012) with modifications. […] CI respiration was calculated as the difference between total respiration (CI+CII) and the addition of CI inhibitor rotenone (0.5 uM); CII respiration was calculated as the difference between inhibited CI respiration and the addition of CII inhibitor malonic acid (5 mM). Total respiration (CI+CII, Tot resp) was assessed as the difference of the respiration in presence of all substrates and the total inhibition of CI and CII. All numerical data are expressed as mean±SEM and reported as histograms. […]
smiles,measurement,value
"NC(=O)c1ccc[n+]([C@@H]2O[C@H](CO)[C@@H](O)[C@H]2O)c1 [NR, nicotinamide riboside]",effect on mitochondrial respiration when used alone,do not show any significant effect when used alone
